# Tests used:
# [1] = in vivo; cited from earlier work
# [2] = Window of opportunity trial: adverse events of intratumoral/peritumoral Copaxone injections; format: in vivo, human
# Protocol: (§1) Subjects whose tumors were accessible for intratumoral, percutaneous injection and were planned for surgery as the primary treatment were eligible if no other treatment between initial biopsy and surgery was anticipated. During the treatment period, eligible subjects received Copaxone® at 40 mg intratumorally for up to 3 times a week and at least 48 hours apart until 24 hours before the planned surgery. This dosing regimen was consistent with the label for subcutaneous injections of Copaxone®.
# This study is an open label single arm window of opportunity trial in patients with resectable solid malignancies whose planned primary treatment is surgical resection conducted at the University of Kansas Cancer Center (KUCC). The patients had to be at least 18 years old with previously untreated histologically confirmed malignant tumor that is percutaneously accessible for intratumoral injection. The injectable tumor must be at least 5 mm in diameter using standard measuring tape. Pretreatment archival tumor tissue consisting of formalin-fixed, paraffin-embedded (FFPE) tumor tissue obtained from standard of care diagnostic biopsy must be available in order to be eligible for the trial. Patients whose lesions are in close proximity to vascular structures (i.e., carotid artery or tumors close to other vital organs such as the trachea), with mucosal lesions only, with known hypersensitivity to Copaxone or with a known condition that leads to immunosuppression such as AIDS or concurrent use of immunosuppressive therapy were considered ineligible. Approval for the study was granted through the institutional review board at University of Kansas Cancer Center and all patients provided written informed consent before study entry. This trial was performed according to the Declaration of Helsinki principles. The KUCC Data and Safety Monitoring Committee (DSMC) performed the oversight of the monitoring of participant safety, conduct and scientific progress of research protocols, and the validity and integrity of the data for clinical trials.
# Study treatment: Treatment was administered on an outpatient basis prior to surgery. […] Doses were administered at least 48 hours apart and the last dose given within 96 hours of surgery. This window of 96 hours was chosen because we hypothesized that any immune changes due to Copaxone may remain apparent within 96 hours. No dose adjustments, modifications or delays due to Copaxone® related toxicity were allowed.
# Efforts were made to administer the full dose into the lesion, unless it was deemed not practicable by the treating investigator. Tumors were injected using a 28-gauge or smaller needle. Glatiramer acetate (Copaxone®) was thoroughly distributed within the injected tumor using a “fanning method” (to distribute the injection across several angles throughout the lesion to maximize the spread of glatiramer acetate (Copaxone®) in the tumor). The use of local anesthetic prior to Copaxone injection was allowed.
# Safety Assessments: Adverse events were assessed at baseline, during Copaxone® dose administration and at time of surgery or end of treatment visit. The revised NCI Common Terminology Criteria for Adverse Events (CTCAE) version 5.0 was utilized for AE reporting and toxicity assessment. Complete blood count, chemistry and INR were done at baseline.
# as §1, with “A single-arm, open-label, preoperative window of opportunity trial was conducted to evaluate the feasibility, safety, and local effects of intratumoral/peritumoral injections of Copaxone®. Subjects” for “Subjects”, “This dosing regimen was consistent with the label for subcutaneous injections of Copaxone®.” left out
# EAE = settings: mice; cited from earlier work
# [3] = mouse, in vivo; cited from earlier work
# [4] = tested on: differentially expressed genes; assay: RNAseq differential gene expression, pre vs post treatment tumor; format: in vivo, human
# Protocol: RNASeq Analysis: A cutoff linear fold-change of 4 was used to select for the differentially expressed genes in each patient. Gene ontology (GO) of the biological process, functional annotation clustering, and Kyoto Encyclopedia of Genes and Genomes (KEGG) pathway analysis of the differentially expressed genes was performed using Database for Annotation, Visualization, and Integrated Discovery (DAVID) v2021^7,8.
# Immune biomarkers were assessed in tumor biopsies and compared with those in the resected tumors after treatment. Conventional RNA sequencing and a geographical sequencing platform (GeoMx) were used to assess immune markers at the transcriptional level. In the RNA-Seq gene expression analysis, genes were filtered for differentially expressed genes (|FC|<4) between pre-and post-samples for three patients.
# Clone M3 tumors = assay: Cloudman M3 (Clone M3) melanoma model; format: in vivo, DBA/2N mice; settings: through 21 days; 2 mg GA IT x5, 10 mg/kg antibody IP x3
# Protocol: Mice were randomized into treatment groups when tumors reached mean volumes of 50-80 mm^3 at Day 7.
# Treatment groups consisted of vehicle control (n=7, 4% mannitol IT plus 10 mg/kg isotype control antibody IP), anti-PD1 alone (n=5, 4% mannitol IT plus 10 mg/kg anti-PD1 IP), GA alone (2 mg GA IT plus 10 mg/kg isotype control IP), or GA+anti-PD1 combination (n=5, 2 mg GA IT plus 10 mg/kg anti-PD1 IP). Intratumoral treatments were administered 5 times at a frequency of 3 times per week and 50 μL per injection beginning on Day 7. Intraperitoneal antibody was given beginning on Day 7 as well, but for a total of 3 times on a frequency of every 3-4 days.
# Primary tumors were measured by caliper measurement. Tumor sizes were
# calculated according to the formula (W^2×L)/2. Animals were euthanized when any tumor diameter dimension exceeded 1.8 cm.
# [5] = mouse, in vivo; cited from earlier work; remark: listed apart in the source
# [6] = in vitro; cited from earlier work
substance,measurement,setting,value
Glatiramer acetate [GA],systemic exposure,[1],negligible systemic exposure
same,injection site reactions (overall),"[2]; intratumoral/peritumoral injection, patients",Injection site reactions were observed in and around tumor tissues
same,grade 2 or higher adverse events,"[2]; nine patients, Copaxone 40 mg intratumoral",no grade 2 or higher adverse events
same,treatment related adverse events reported (number),"[2]; nine patients, Copaxone 40 mg intratumoral, 1-3 injections",3
same,grade of treatment related adverse events,"[2]; nine patients, Copaxone 40 mg intratumoral, CTCAE v5.0",grade 1
same,Injection Site Reaction,"[2]; patient BCCa-Left Nasal Ala, 2 Copaxone injections",Grade 1-Mild
same,Injection Site Reaction,"[2]; patient BCCa-Left Nasal Ala, 2 Copaxone injections, listed as Copaxone",grade 1 injection site reaction described as pressure and itching
same,Injection Site Reaction,"[2]; patient BCCa-Right Flank, 3 Copaxone injections",1st inj. - Pain
same,Injection Site Reaction,"[2]; patient BCCa-Right Post. Neck, 2 Copaxone injections",Grade 1-Mild
same,Injection Site Reaction,"[2]; patient BCCa-Right Post. Neck, 2 Copaxone injections, listed as Copaxone",grade 1 burning with injection of lidocaine
same,Injection Site Reaction,"[2]; patient Melanoma-Left Scalp, 2 Copaxone injections",None
same,Injection Site Reaction,"[2]; patient Melanoma-Mid Back, 2 Copaxone injections",None
same,Injection Site Reaction,"[2]; patient SCCa-Right Cheek, 1 Copaxone injection",None
same,tolerability of intratumoral injections,[2]; patients,well tolerated
same,effect on EAE,EAE,suppress EAE
same,aggregate formation near the injection site,[3],formed spherical aggregates near the injection site
same,"Gene Ontology enrichment, upregulated biological processes",[4]; all three patients,upregulation in genes involved in promoting an immune-rich tumor microenvironment
same,genes downregulated post treatment,[4]; patient 1,406 genes
same,genes upregulated post treatment,"[4]; patient 1, |FC|<4 filter as printed, listed as Copaxone",6355 genes
same,genes upregulated post treatment,"[4]; patient 1, |FC|<4 filter as printed, listed as Copaxone®","6,355 genes"
same,genes downregulated post treatment,[4]; patient 2,75 genes
same,genes upregulated post treatment,[4]; patient 2,647 genes
same,genes downregulated post treatment,[4]; patient 3,128 genes
same,genes upregulated post treatment,[4]; patient 3,5375 genes
same,"Gene Ontology enrichment, downregulated biological processes",[4]; three patients,No biological processes were consistently found to be downregulated post treatment
same,mouse survival (not exceeding 1750 mm^3 tumor volume or 1.8 cm diameter),Clone M3 tumors,three of five
same,retention of co-delivered immunostimulants at injection site,[5],retaining other HIT-IT such as CpG and PolyI: C at the intratumoral site of injection
same,aggregation in the presence of hyaluronic acid (HA),[6],form aggregates and precipitate in the presence of HA

# — patent US20260028404A1 (UNIVERSITY OF KANSAS, priority 2022, published 2026)
